The term IC50 denotes the point on the concentration scale where inhibition reaches its midpoint. Low readings indicate greater potency in that assay, high ones weaker potency in that assay. As a reminder, the T/C is the ratio of treated to control.

Six compounds from ChEMBL document CHEMBL1125470, “Novel sulfonamides as potential, systemically active antitumor agents” (J Med Chem, 1992) can be followed below.

One test has as its system KB. Briefly: In vitro inhibitory activity against KB (human carcinoma of the nasopharynx) cell proliferation. It counts as functional, cell-based.
For test [1], the system named is Mus musculus. Briefly: Ratio between dead mices and total mices at the dose of 12.5 (mg/kg/day.); 0/6. Format: functional.
Test [2] deals with Mus musculus. The test can be described thus: Ratio between dead mices and total mices at the dose of 25 (mg/kg/day.); 0/6. It counts as functional.
For test [3], the system named is Mus musculus. Briefly: Ratio between dead mices and total mices at the dose of 50 (mg/kg/day.); 0/6. Format: functional.
In test [4] the test system is MC-38. Briefly: In vitro inhibitory activity against colon 38 cell proliferation. The settings on record: Mus musculus. It counts as functional, cell-based.
Test [5] has as its system MC-38. Briefly: Ratio between Tumor weight of treated mice and Tumor weight of control mice * 100 at the dose of 25 (mg/kg/day). Format: functional.
Test [6] has as its system MC-38. Briefly: Ratio between Tumor weight of treated mice and Tumor weight of control mice * 100 at the dose of 50 (mg/kg/day). Format: functional.
Test [7] concerns MC-38. The test can be described thus: Ratio between Tumor weight of treated mice and Tumor weight of control mice * 100 at the dose of 12.5 (mg/kg/day). It counts as functional.
Test [8] concerns Mus musculus. The test can be described thus: Ratio between dead mices and total mices at the dose of 100 (mg/kg/day.); 0/6. It counts as functional.
In test [9] the test system is Mus musculus. Briefly: Ratio between dead mices and total mices at the dose of 200 (mg/kg/day.); 0/6. Format: functional.
Test [10] deals with Mus musculus. Briefly: Ratio between dead mices and total mices at the dose of 400 (mg/kg/day.); 0/6. Format: functional.
In test [11] the test system is MC-38. Briefly: Ratio between Tumor weight of treated mice and Tumor weight of control mice * 100 at the dose of 100 (mg/kg/day.). Format: functional.
Test [12] relates to MC-38. The test can be described thus: Ratio between Tumor weight of treated mice and Tumor weight of control mice * 100 at the dose of 200 (mg/kg/day.). It counts as functional.
Test [13] relates to MC-38. Briefly: Ratio between Tumor weight of treated mice and Tumor weight of control mice * 100 at the dose of 400 (mg/kg/day.). It counts as functional.
Test [14] has as its system MC-38. Briefly: Ratio between Tumor weight of treated mice and Tumor weight of control mice * 100 at the dose of 50 (mg/kg/day.). Format: functional.
Test [15] has as its system Mus musculus. The test can be described thus: Ratio between dead mices and total mices at the dose of 200 (mg/kg/day.); 2/6. Format: functional.
For test [16], the system named is MC-38. Briefly: Ratio between Tumor weight of treated mice and Tumor weight of control mice * 100 at the dose of 200 (mg/kg/day). Format: functional.
Test [17] has as its system MC-38. Briefly: Ratio between Tumor weight of treated mice and Tumor weight of control mice * 100 at the dose of 100 (mg/kg/day). It counts as functional.

≈ marks a conversion by molar mass, not a printed value.

In the case of `COc1ccc(S(=O)(=O)Nc2cccnc2Nc2ccncc2)cc1`, the results for the IC50 with KB and in the test with MC-38 [4] were 1 µg/mL (≈ 2.81 µM) and 1.4 µg/mL (≈ 3.93 µM), respectively. The Deaths/total in the test with Mus musculus [1], in the test with Mus musculus [2] and with Mus musculus [3] was 0 throughout. In addition, the T/C is on record as 35% in the test with MC-38 [5], 14% with MC-38 [6] and 41% with MC-38 [7].
Consider `Cc1ccc(S(=O)(=O)Nc2cccnc2Nc2ccccc2)cc1`, for which the IC50 in the test on KB worked out at 1.5 µg/mL (≈ 4.42 µM); in the test with MC-38 [4], 3.2 µg/mL (≈ 9.43 µM). In addition, the Deaths/total in the test with Mus musculus [8], in the test with Mus musculus [9] and in the test with Mus musculus [10] was 0 throughout. Also, the T/C in the test with MC-38 [11] was 20%; with MC-38 [12], 19%; with MC-38 [13], 1%.
Regarding `Cc1ccc(S(=O)(=O)Nc2ccccc2Nc2ccccc2)cc1`, the figures for the IC50 with KB and in the test with MC-38 [4] were 0.46 µg/mL (≈ 1.36 µM) and 1.2 µg/mL (≈ 3.55 µM), respectively.
As for `COc1ccc(S(=O)(=O)Nc2cccnc2Nc2ccccc2)cc1`, the concentration for half-maximal inhibition (IC50) with KB was 0.27 µg/mL (≈ 0.76 µM); in the test with MC-38 [4], 0.45 µg/mL (≈ 1.27 µM). Also, the Deaths/total in the test with Mus musculus [8], in the test on Mus musculus [9] and in the test on Mus musculus [3] was 0 in each case. Also, the T/C stood at 2% in the test on MC-38 [11], 1% in the test with MC-38 [12] and 27% in the test on MC-38 [14].
Regarding `COc1ccc(Nc2ncccc2NS(=O)(=O)c2ccc(OC)cc2)cc1`, the IC50 with KB was found to be 1.9 µg/mL (≈ 4.93 µM); with MC-38 [4], 3.6 µg/mL (≈ 9.34 µM). Besides, the Deaths/total is given as 0 in the test with Mus musculus [8], 2 in the test on Mus musculus [15] and 0 in the test with Mus musculus [3]. In addition, the T/C in the test with MC-38 [11] amounted to 1%; in the test with MC-38 [16], 0%; in the test on MC-38 [14], 30%.
As for `COc1ccc(S(=O)(=O)Nc2cccnc2Nc2ccc(O)cc2)cc1` [ABT-751], the figures for the IC50 in the test with KB and in the test with MC-38 [4] were 0.29 µg/mL (≈ 0.781 µM) and 0.38 µg/mL (≈ 1.02 µM), respectively. For the same compound, the Deaths/total in the test on Mus musculus [8], with Mus musculus [1], with Mus musculus [2] and in the test on Mus musculus [3] was 0 throughout. Further, the T/C in the test on MC-38 [17] worked out at 2%; in the test with MC-38 [5], 32%; in the test on MC-38 [6], 3%; in the test with MC-38 [7], 59%.
